From US8092816B2, “Insecticidal compositions for control of general household pests” (priority 2004, dated 2012)

Key:
Red Imported Fire Ant [1] = experiment: Example 6: red imported fire ant knockdown and mortality, bifenthrin and imidacloprid (higher rates); format: in vivo, Solenopsis invicta
Description: (§1) The following examples further illustrate the present invention, but, of course, should not be construed as in any way limiting its scope. The examples set forth certain biological data illustrating the efficacy of the compositions of the present invention in controlling general household pests. Each example embodies a separate test wherein the pests were randomly selected from a population at a random age. As a result, from example to example, the ages of the pests can be very different. This age difference potentially translates to different baselines for each example. Therefore, data should only be compared within the example and not from example to example due to the differences in age of the pests from example to example. Unless otherwise indicated, all parts, percentages, and the like are by weight. The spray chamber used in the examples was approximately 76 inches tall, 73 inches long and 31 inches deep with an adjustable shelf (approximately 22 inches deep) and a movable spray nozzle. The spray chambers were calibrated to deliver a volume of approximately 1 gallon of liquid per 1000 square feet of area at about 14 pounds per square inch of pressure. A DeVilbiss hand held sprayer (Atomizer model 152) manufactured by DeVilbiss located in Glendale Heights, Ill. was used in testing house flies and mosquitoes. The DeVilbiss was used to apply approximately 3-5 milliliters of product at about 10 pounds per square inch.
(§2) The compositions of the present invention were tested for red imported fire ant activity in the following manner:
(§3) Test compositions made up of TALSTARONE® MULTI-INSECTICIDE and a wettable powder of imidacloprid (MERIT) in distilled water were prepared that provided appropriate rates of application of combinations of bifenthrin and imidacloprid, as well as bifenthrin and imidacloprid alone.
(§4) The spray chamber was then calibrated to deliver the treatment solution at the desired volume and pressure over the desired area on the chamber shelf. Spray chamber shelf height was adjusted to approximately 18 inches from the spray tip. The shelf was then covered with aluminum foil and the center of the shelf from front-to-back and end-to-end was determined. The red imported file ants to be treated were collected and placed in screened 16 oz paper cups. The paper cups were placed onto the aluminum foil on the spray chamber shelf. The sprayer was activated and the test compound was applied to each paper cup interior. Red imported fire ant knockdown and mortality were measured.

Red Imported Fire Ant [2] = experiment: Example 5: red imported fire ant knockdown and mortality, bifenthrin and imidacloprid; format: in vivo, Solenopsis invicta
Description: as §1, §2, §3
as §4, with “fire” for “file”

House Fly = experiment: Example 12: house fly knockdown and mortality, bifenthrin and thiamethoxam (higher thiamethoxam rates); format: in vivo
Description: as §1
The compositions of the present invention were tested for house fly activity in the following manner:
Test compositions made up of TALSTARONE® MULTI-INSECTICIDE and a water dispersible granular of thiamethoxam (CENTRIC) in distilled water were prepared that provided appropriate rates of application of combinations of bifenthrin and thiamethoxam, as well as bifenthrin and thiamethoxam alone.
A DeVilbiss hand held sprayer was used to deliver the treatment solution at the desired volume and pressure. The house flies to be treated were collected and placed in screened 16 oz paper cups. The hand held sprayer was activated and the test compound was applied to each paper cup interior. House fly knockdown and mortality were measured.

German cockroach = experiment: Example 2: German cockroach knockdown and mortality, bifenthrin and imidacloprid; format: in vivo
Description: as §1
The compositions of the present invention were tested for German cockroach activity in the following manner:
as §3
The spray chamber was then calibrated to deliver the treatment solution at the desired volume and pressure over the desired area on the chamber shelf. Spray chamber shelf height was adjusted to approximately 18 inches from the spray tip. The shelf was then covered with aluminum foil and the center of the shelf from front-to-back and end-to-end was determined. A desired number of 4.0″ sieve circles were marked on the aluminum foil with a permanent marker. The inside of a desired number of PVC rings were coated with a petroleum jelly/mineral oil mixture (1:2 ratio). The PVC rings were place on the sieve circles. 10 male German cockroaches were placed inside each PVC ring. The sprayer was activated and the test compound was applied to each PVC ring interior. German cockroach knockdown and mortality were measured.

Which “Knockdown Rate @ 5 minute” value (Red Imported Fire Ant [1]; 200 PPM, 0.02% by weight) does the source give for `Cc1c(COC(=O)[C@@H]2[C@H](/C=C(\Cl)C(F)(F)F)C2(C)C)cccc1-c1ccccc1` (racemic) [A, 2-methylbiphenyl-3-ylmethyl (Z)-(1RS)-cis-3-(2-chloro-3,3,3-trifluoroprop-1-enyl)-2,2-dimethylcyclopropanecarboxylate] here?
The value was 0%.

And the “Knockdown Rate @ 10 minute” value (Red Imported Fire Ant [1]; 200 PPM, 0.02% by weight)?
Its value is 0%.

What about the “Knockdown Rate @ 15 minute” value (Red Imported Fire Ant [1]; 200 PPM, 0.02% by weight) of the same molecule?
Its value is 70%.

And the “Knockdown Rate @ 30 minutes” value (Red Imported Fire Ant [1]; 200 PPM, 0.02% by weight)?
The value was 88%.

What about the “Mortality @ 120 minutes” value (Red Imported Fire Ant [1]; 200 PPM, 0.02% by weight) of the same molecule?
Its value is 100%.

What about the “Mortality Rate @ 60 minutes” value (Red Imported Fire Ant [1]; 200 PPM, 0.02% by weight) of the same molecule?
The value was 100%.

And the “Mortality Rate @ 4 hours” value (Red Imported Fire Ant [1]; 200 PPM, 0.02% by weight)?
Its value is 100%.

And the “Knockdown Rate @ 5 minute” value (Red Imported Fire Ant [1]; 600 PPM, 0.06% by weight)?
The value was 0%.

What about the “Knockdown Rate @ 10 minute” value (Red Imported Fire Ant [1]; 600 PPM, 0.06% by weight) of the same molecule?
Its value is 40%.

And the “Knockdown Rate @ 15 minute” value (Red Imported Fire Ant [1]; 600 PPM, 0.06% by weight)?
Its value is 88%.

And the “Knockdown Rate @ 30 minutes” value (Red Imported Fire Ant [1]; 600 PPM, 0.06% by weight)?
Its value is 100%.

What about the “Mortality @ 120 minutes” value (Red Imported Fire Ant [1]; 600 PPM, 0.06% by weight) of the same molecule?
The value was 100%.

And the “Mortality Rate @ 60 minutes” value (Red Imported Fire Ant [1]; 600 PPM, 0.06% by weight)?
The value was 100%.

What about the “Mortality Rate @ 4 hours” value (Red Imported Fire Ant [1]; 600 PPM, 0.06% by weight) of the same molecule?
The value was 100%.

What about the “Knockdown Rate @ 5 minute” value (Red Imported Fire Ant [2]; 10 PPM, 0.001% by weight) of the same molecule?
The value was 30%.

And the “Knockdown Rate @ 10 minute” value (Red Imported Fire Ant [2]; 10 PPM, 0.001% by weight)?
The value was 93%.

And the “Knockdown Rate @ 15 minute” value (Red Imported Fire Ant [2]; 10 PPM, 0.001% by weight)?
Its value is 95%.

And the “Knockdown Rate @ 30 minutes” value (Red Imported Fire Ant [2]; 10 PPM, 0.001% by weight)?
Its value is 100%.

And the “Mortality Rate @ 60 minutes” value (Red Imported Fire Ant [2]; 10 PPM, 0.001% by weight)?
Its value is 65%.

What about the “Mortality Rate @ 120 minutes” value (Red Imported Fire Ant [2]; 10 PPM, 0.001% by weight) of the same molecule?
Its value is 100%.

And the “Mortality Rate @ 4 hours” value (Red Imported Fire Ant [2]; 10 PPM, 0.001% by weight)?
Its value is 100%.

And the “Mortality Rate @ 1 day” value (Red Imported Fire Ant [2]; 10 PPM, 0.001% by weight)?
The value was 100%.

What about the “Knockdown Rate @ 5 minute” value (Red Imported Fire Ant [2]; 50 PPM, 0.005% by weight) of the same molecule?
Its value is 10%.

And the “Knockdown Rate @ 10 minute” value (Red Imported Fire Ant [2]; 50 PPM, 0.005% by weight)?
Its value is 70%.

What about the “Knockdown Rate @ 15 minute” value (Red Imported Fire Ant [2]; 50 PPM, 0.005% by weight) of the same molecule?
The value was 95%.

What about the “Knockdown Rate @ 30 minutes” value (Red Imported Fire Ant [2]; 50 PPM, 0.005% by weight) of the same molecule?
The value was 100%.

And the “Mortality Rate @ 60 minutes” value (Red Imported Fire Ant [2]; 50 PPM, 0.005% by weight)?
Its value is 100%.

What about the “Mortality Rate @ 120 minutes” value (Red Imported Fire Ant [2]; 50 PPM, 0.005% by weight) of the same molecule?
Its value is 100%.

What about the “Mortality Rate @ 4 hours” value (Red Imported Fire Ant [2]; 50 PPM, 0.005% by weight) of the same molecule?
Its value is 100%.

And the “Mortality Rate @ 1 day” value (Red Imported Fire Ant [2]; 50 PPM, 0.005% by weight)?
Its value is 100%.

And the “Knockdown Rate @ 15 minute” value (House Fly; 10 PPM, 0.001% by weight)?
Its value is 0%.

What about the “Knockdown Rate @ 30 minute” value (House Fly; 10 PPM, 0.001% by weight) of the same molecule?
The value was 0%.

And the “Knockdown Rate @ 45 minutes” value (House Fly; 10 PPM, 0.001% by weight)?
Its value is 17%.

What about the “Knockdown Rate @ 60 minutes” value (House Fly; 10 PPM, 0.001% by weight) of the same molecule?
The value was 40%.

And the “Knockdown Rate @ 120 minutes” value (House Fly; 10 PPM, 0.001% by weight)?
The value was 63%.

What about the “Knockdown Rate @ 4 hours” value (House Fly; 10 PPM, 0.001% by weight) of the same molecule?
The value was 50%.

What about the “Mortality Rate @ 1 day” value (House Fly; 10 PPM, 0.001% by weight) of the same molecule?
Its value is 30%.

And the “Knockdown Rate @ 15 minute” value (House Fly; 50 PPM, 0.005% by weight)?
Its value is 0%.

What about the “Knockdown Rate @ 30 minute” value (House Fly; 50 PPM, 0.005% by weight) of the same molecule?
The value was 78%.

And the “Knockdown Rate @ 45 minutes” value (House Fly; 50 PPM, 0.005% by weight)?
The value was 97%.

What about the “Knockdown Rate @ 60 minutes” value (House Fly; 50 PPM, 0.005% by weight) of the same molecule?
The value was 97%.

And the “Knockdown Rate @ 120 minutes” value (House Fly; 50 PPM, 0.005% by weight)?
Its value is 97%.

What about the “Knockdown Rate @ 4 hours” value (House Fly; 50 PPM, 0.005% by weight) of the same molecule?
Its value is 97%.

What about the “Mortality Rate @ 1 day” value (House Fly; 50 PPM, 0.005% by weight) of the same molecule?
Its value is 97%.

And the “Knockdown Rate @ 10 minute” value (German cockroach; 200 PPM, 0.02% by weight)?
Its value is 0%.

And the “Knockdown Rate @ 15 minute” value (German cockroach; 200 PPM, 0.02% by weight)?
The value was 3%.

And the “Knockdown Rate @ 30 minutes” value (German cockroach; 200 PPM, 0.02% by weight)?
The value was 45%.

What about the “Mortality Rate @ 60 minutes” value (German cockroach; 200 PPM, 0.02% by weight) of the same molecule?
Its value is 100%.

And the “Mortality Rate @ 120 minutes” value (German cockroach; 200 PPM, 0.02% by weight)?
The value was 100%.

And the “Mortality Rate @ 1 day” value (German cockroach; 200 PPM, 0.02% by weight)?
The value was 100%.

And the “Knockdown Rate @ 10 minute” value (German cockroach; 600 PPM, 0.06% by weight)?
Its value is 0%.

And the “Knockdown Rate @ 15 minute” value (German cockroach; 600 PPM, 0.06% by weight)?
Its value is 8%.

And the “Knockdown Rate @ 30 minutes” value (German cockroach; 600 PPM, 0.06% by weight)?
The value was 60%.

And the “Mortality Rate @ 60 minutes” value (German cockroach; 600 PPM, 0.06% by weight)?
The value was 100%.

And the “Mortality Rate @ 120 minutes” value (German cockroach; 600 PPM, 0.06% by weight)?
Its value is 100%.

And the “Mortality Rate @ 1 day” value (German cockroach; 600 PPM, 0.06% by weight)?
Its value is 100%.
